This note sets out measurements from patent publication US20230020161A1, “Tricyclic Modulators of PP2A” (Rappta Therapeutics Oy, priority 2020, published 2023).

The term GI50 denotes the concentration that inhibits growth by half.

For data set [1], the target named is T1, Human Pregnane X Receptor (PXR, NR1I2) (Homo sapiens, UniProt O75469).
T1 construct: host or cells: DPX2 cells of the kit
T1 sequence (O75469 1-434): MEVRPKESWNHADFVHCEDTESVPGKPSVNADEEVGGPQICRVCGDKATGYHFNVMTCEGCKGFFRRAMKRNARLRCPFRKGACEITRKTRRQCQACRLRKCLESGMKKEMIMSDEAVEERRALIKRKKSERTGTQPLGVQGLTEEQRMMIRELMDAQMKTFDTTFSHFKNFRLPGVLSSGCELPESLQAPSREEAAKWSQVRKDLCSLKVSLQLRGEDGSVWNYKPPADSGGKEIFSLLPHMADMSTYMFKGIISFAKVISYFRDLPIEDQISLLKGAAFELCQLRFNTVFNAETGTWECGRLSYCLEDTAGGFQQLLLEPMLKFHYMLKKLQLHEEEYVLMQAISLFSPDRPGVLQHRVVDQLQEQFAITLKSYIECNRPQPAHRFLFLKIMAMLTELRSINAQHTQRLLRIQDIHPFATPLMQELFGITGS
Put plainly: PXR activation assay (Puracyp DPX2-96-001). It counts as cell-based. The text has this: PXR is a nuclear hormone receptor involved in the transcriptional regulation of a number of metabolic enzymes (e.g. CYP3A4) and transporters (e.g. PGP). Its activation by xenobiotic substances leads to upregulation of those metabolic enzymes and transporters and consequent removal of those substances from systemic circulation. It is not uncommon to find that drugs activate the PXR receptor with problematic consequences. […] In addition, if the drug itself is metabolized by, for example, CYP3A4, then there can be reduced exposure of the drug on repeated administration (auto-induction). It is thus considered beneficial to eliminate or at least minimize PXR activation if drug candidates. For drug series where PXR activation is significant, PXR activation is generally treated as a key criterion for optimization and advancement (V. Chu et al., Drug Metab. Dispos. 37, 1339 (2009).
PXR activation assay was performed according to manufacturer's instructions (Puracyp, Inc, Catalog #DPX2-96-001).

The subject of another data set is LNCaP cells. The data set can be described thus: Cell viability assay (MTS) in LNCaP cells. Type of data set: cell-based. As to conditions: doses 1 μM to 80 μM. As for the experimental part:
Cell line LNCaP was used for this assay. LNCaP cells were plated in 96-well plates at a density of 5000 cells per well. After 24 hours of plating, cells were treated with increasing doses of compound ranging from 1 μM to 80 μM. Relative cell numbers were analyzed after 48 hours using a 3-(4,5-dimethylthiazol-2-yl)-5-(3-carboxymethoxyphenyl)-2-(4-sulfophenyl)-2H-tetrazolium (MTS) assay (Promega) according to the manufacturer's directions.
LNCaP cells were treated with increasing doses of Target compound and cell viability was measured at 48 hours by MTS analysis.
The cell viability data was analyzed with GraphPad Prism software. The values were log transformed and analyzed with nonlinear regression (curve-fit) using log(inhibitor) vs. response variable slope (four parameters) and constraining the bottom to equal zero.

[2] abbreviates: Concentration observed is at 10 μM.

With `N=[S@@](=O)(N[C@@H]1COC[C@H](n2c3ccc(Cl)cc3c3cc(Cl)ccc32)[C@H]1O)c1ccc(OC(F)(F)F)cc1` (relative stereo) [Target T17-2], in data set [1] (setting [2]), the “Maximum fold activation observed (Average)” value stood at 2.45 and the “Percent positive control response” value is 9.88%. The same compound registered a GI50 in the data set on LNCaP cells (Homo sapiens, LNCaP, 48 h) of 9.64 µM.
On the same counts, the results for `N=[S@@](=O)(N[C@@H]1COC[C@H](N2c3ccccc3Oc3ccccc32)[C@H]1O)c1ccc(OC(F)(F)F)cc1` (relative stereo) [Target T14-2] are 4.12, 21.2% and 25.6 µM.
Turning to `O=S(=NCC1CC1)(N[C@@H]1COC[C@H](N2c3ccccc3Oc3ccccc32)[C@H]1O)c1ccc(OC(F)(F)F)cc1` (stereo partly drawn) [Target T15A, N-(cyclopropylmethyl)-N′-((3R,4R,5S)-4-hydroxy-5-(10H-phenoxazin-10-yl)tetrahydro-2H-pyran-3-yl)-4-(trifluoromethoxy) benzenesulfonimidoamide], in the data set with LNCaP cells (Homo sapiens, LNCaP, 48 h), the GI50 worked out at 9.54 µM.
Take `N=[S@](=O)(N[C@@H]1COC[C@H](N2c3ccccc3Oc3ccccc32)[C@H]1O)c1ccc(OC(F)(F)F)cc1` (relative stereo) [Target T14-1]: the “Percent positive control response” value in data set [1] (@30 μM) is listed as 35.4 @30 μM %. The “Maximum fold activation observed (Average)” value in data set [1] (setting [2]) stood at 6.21. Besides, halving of growth in the data set on LNCaP cells (Homo sapiens, LNCaP, 48 h) (GI50) required 25.6 µM.
Take `CCCN=S(=O)(N[C@@H]1COC[C@H](N2c3ccccc3Oc3ccccc32)[C@H]1O)c1ccc(OC(F)(F)F)cc1` (stereo partly drawn) [Target T15C, N-((3R,4R,5S)-4-hydroxy-5-(10H-phenoxazin-10-yl)tetrahydro-2H-pyran-3-yl)-N′-propyl-4-(trifluoromethoxy) benzenesulfonimidoamide]: the GI50 with LNCaP cells (Homo sapiens, LNCaP, 48 h) stood at 55.4 µM.
The same measure, in the same setting: with `N=[S@](=O)(NC[C@H](O)CN1c2ccccc2CCc2ccccc21)c1ccc(OC(F)(F)F)cc1` (single isomer, unassigned) [Target T5d2] the figure was 20.2 µM.
As to `CN=[S@](=O)(N[C@@H]1COC[C@H](n2c3ccc(Cl)cc3c3cc(Cl)ccc32)[C@H]1O)c1ccc(OC(F)(F)F)cc1` (relative stereo) [Target T18-1], in data set [1] (setting [2]), the “Maximum fold activation observed (Average)” value is on record as 1.79 and the “Percent positive control response” value is 5.37%. This compound came in with a GI50 in the data set on LNCaP cells (Homo sapiens, LNCaP, 48 h) of 8.53 µM.
On the same counts, the results for `CN=[S@@](=O)(N[C@@H]1COC[C@H](N2c3ccccc3Oc3ccccc32)[C@H]1O)c1ccc(OC(F)(F)F)cc1` (relative stereo) [Target T15-2] are 7.15, 41.8% and 23.6 µM.
Turning to `O=S(=O)(N[C@@H]1COC[C@H](n2c3ccc(Cl)cc3c3cc(Cl)ccc32)[C@H]1O)c1ccc(OC(F)(F)F)cc1` [Target T16, reference compound], in data set [1] (setting [2]), the “Maximum fold activation observed (Average)” value came out at 3.93 and the “Percent positive control response” value stood at 16.7%. This compound also came in with a GI50 with LNCaP cells (Homo sapiens, LNCaP, 48 h) of 8.2 µM.
On the same counts, the results for `N=[S@](=O)(N[C@@H]1COC[C@H](n2c3ccc(Cl)cc3c3cc(Cl)ccc32)[C@H]1O)c1ccc(OC(F)(F)F)cc1` (relative stereo) [Target T17-1] are 2.43, 9.75% and 10.2 µM.
As for `N=[S@](=O)(N[C@@H]1CCC[C@H](N2c3ccccc3Oc3ccccc32)[C@H]1O)c1ccc(OC(F)(F)F)cc1` (relative stereo) [Target T11-1], in data set [1] (setting [2]), the “Maximum fold activation observed (Average)” value is listed as 4.57 and the “Percent positive control response” value is recorded as 24.2%. The compound also came in with a GI50 in the data set on LNCaP cells (Homo sapiens, LNCaP, 48 h) of 16.7 µM.
Regarding `N=[S@@](=O)(N[C@@H]1CCC[C@H](N2c3ccccc3Oc3ccccc32)[C@H]1O)c1ccc(OC(F)(F)F)cc1` (relative stereo) [Target T11-2], in data set [1] (setting [2]), the “Maximum fold activation observed (Average)” value is given as 4.82 and the “Percent positive control response” value is listed as 26%. In the data set with LNCaP cells (Homo sapiens, LNCaP, 48 h), the GI50 was determined as 16.8 µM.
Compound `CN=[S@](=O)(NC[C@H](O)CN1c2ccccc2CCc2ccccc21)c1ccc(OC(F)(F)F)cc1` (single isomer, unassigned) [Target T6d2] had a GI50 in the data set with LNCaP cells (Homo sapiens, LNCaP, 48 h) of 24.5 µM.
In the case of `N=[S@@](=O)(NC[C@H](O)CN1c2ccccc2CCc2ccccc21)c1ccc(OC(F)(F)F)cc1` (single isomer, unassigned) [Target T5d1], in the data set with LNCaP cells (Homo sapiens, LNCaP, 48 h), it took 25.8 µM to inhibit growth by half (GI50).
Same read-out and setting: with `CN=[S@@](=O)(NC[C@H](O)CN1c2ccccc2CCc2ccccc21)c1ccc(OC(F)(F)F)cc1` (single isomer, unassigned) [Target T6d1] the figure was 22.7 µM.
Turning to `CN=[S@@](=O)(N[C@@H]1COC[C@H](n2c3ccc(Cl)cc3c3cc(Cl)ccc32)[C@H]1O)c1ccc(OC(F)(F)F)cc1` (relative stereo) [Target T18-2], in data set [1] (setting [2]), the “Maximum fold activation observed (Average)” value came out at 2.36 and the “Percent positive control response” value is 9.23%. Further, growth with LNCaP cells (Homo sapiens, LNCaP, 48 h) was halved (GI50) at 12.2 µM.
On the same counts, the results for `CN=[S@](=O)(N[C@@H]1COC[C@H](N2c3ccccc3Oc3ccccc32)[C@H]1O)c1ccc(OC(F)(F)F)cc1` (relative stereo) [Target T15-1] are 3.89, 19.6% and 16.6 µM.
With `O=S(=O)(N[C@@H]1COC[C@H](N2c3ccccc3Oc3ccccc32)[C@H]1O)c1ccc(OC(F)(F)F)cc1` [Target T13, reference compound], in data set [1] (setting [2]), the “Maximum fold activation observed (Average)” value is reported as 11 and the “Percent positive control response” value came out at 57%. Further, halving of growth in the data set with LNCaP cells (48 hours) (GI50) required 14.2 µM.
For the compound `O=S(=O)(N[C@@H]1COC[C@H](N2c3ccccc3Oc3ccccc32)[C@H]1O)c1ccc(OC(F)(F)F)cc1` [T10 (DT-061), reference compound], in data set [1] (setting [2]), the “Maximum fold activation observed (Average)” value was 17.3 and the “Percent positive control response” value was determined as 89.8%. In addition, the concentration for 50% growth inhibition (GI50) in the data set on LNCaP cells (Homo sapiens, LNCaP, 48 h) came out at 10.7 µM.
